Data: PubChem BioAssay (NCI)
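Step 1: Grow cells in 96-well plates. Step 2: Expose to compound for 48 hours at 5 concentrations. Step 3: Interpolate endpoints linearly; if unreached, use highest concentration. Here, GI50 denotes the concentration required for 50% inhibition of growth. The concentration for full growth arrest is given as TGI.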

Key:
Assay in all cases: DTP human tumour cell line panel, 48 h
HL-60(TB) leukemia = test system: HL-60(TB) leukemia
HOP-62 NSCLC = test system: HOP-62 NSCLC
K-562 leukemia = test system: K-562 leukemia
RPMI-8226 leukemia = test system: RPMI-8226 leukemia
HT29 colon = test system: HT29 colon
OVCAR-3 ovarian = test system: OVCAR-3 ovarian
SR leukemia = test system: SR leukemia
HCT-15 colon = test system: HCT-15 colon
MOLT-4 leukemia = test system: MOLT-4 leukemia
CAKI-1 renal = test system: CAKI-1 renal
EKVX NSCLC = test system: EKVX NSCLC
SF-539 CNS = test system: SF-539 CNS
SF-268 CNS = test system: SF-268 CNS
SK-MEL-28 melanoma = test system: SK-MEL-28 melanoma
SW-620 colon = test system: SW-620 colon
OVCAR-4 ovarian = test system: OVCAR-4 ovarian
U251 CNS = test system: U251 CNS
MDA-MB-231 breast = test system: MDA-MB-231 breast

SMILES	TGI (HL-60(TB) leukemia)	TGI (HOP-62 NSCLC)	TGI (K-562 leukemia)	TGI (RPMI-8226 leukemia)	TGI (HT29 colon)	TGI (OVCAR-3 ovarian)	TGI (SR leukemia)	TGI (HCT-15 colon)	TGI (MOLT-4 leukemia)	TGI (CAKI-1 renal)	TGI (EKVX NSCLC)	TGI (SF-539 CNS)	TGI (SF-268 CNS)	TGI (SK-MEL-28 melanoma)	TGI (SW-620 colon)	TGI (OVCAR-4 ovarian)	TGI (U251 CNS)	TGI (MDA-MB-231 breast)	GI50 (OVCAR-3 ovarian)	GI50 (SF-268 CNS)
CC(C)(C)OC(=O)NCCCC(=O)NC1(c2cc3ccccc3s2)CCCCC1	24.8 µM	41.5 µM	51.4 µM	29.6 µM	30.6 µM	39.2 µM	27.9 µM	45.5 µM	34.4 µM	93.1 µM	35.9 µM	30.7 µM	39.7 µM	31.3 µM	52.8 µM	> 100 µM				
CN(C)CCNC(=O)Cn1cnc2cccc([N+](=O)[O-])c2c1=O	> 100 µM	> 100 µM	> 100 µM	> 100 µM	> 100 µM	> 100 µM	> 100 µM	> 100 µM	> 100 µM	> 100 µM	> 100 µM	> 100 µM	> 100 µM	> 100 µM	> 100 µM	> 100 µM	> 100 µM			
COC(=O)C(Br)C1CCc2ccccc21 (stereo not drawn)	> 100 µM	> 100 µM	> 100 µM	> 100 µM	> 100 µM	> 100 µM	> 100 µM	> 100 µM	> 100 µM	> 100 µM			> 100 µM	> 100 µM	> 100 µM	> 100 µM	> 100 µM			
CN(C)c1nncc2n[nH]nc12	> 100 µM	> 100 µM	> 100 µM	> 100 µM	> 100 µM	> 100 µM	> 100 µM	> 100 µM	> 100 µM	> 100 µM	> 100 µM	> 100 µM		> 100 µM	> 100 µM	> 100 µM	> 100 µM			
C=CCN1/C(=C2\SC(=S)N(c3ccc(C)cc3)C2=O)Sc2c1nc[nH]c2=O	> 100 µM	> 100 µM	> 100 µM	> 100 µM	> 100 µM	> 100 µM		> 100 µM	> 100 µM	> 100 µM	> 100 µM	> 100 µM	> 100 µM	> 100 µM	> 100 µM	> 100 µM	> 100 µM			
CCCCCCCCCC(=O)OCC1OC(n2cc(F)c(=O)[nH]c2=O)C(NC(=O)OCc2ccccc2)C(OC(=O)CCCCCCCCC)C1O (stereo not drawn)	55.8 µM	> 100 µM	> 100 µM	65.2 µM	35 µM	48.5 µM	81.2 µM	> 100 µM	> 100 µM	> 100 µM	> 100 µM	> 100 µM	> 100 µM	> 100 µM	> 100 µM	40.6 µM	30.3 µM			
O=C1c2ccccc2C(=O)C1C(c1ccc(F)cc1)C1C(=O)c2ccccc2C1=O	> 100 µM	> 100 µM	> 100 µM	> 100 µM	> 100 µM	> 100 µM	> 100 µM	> 100 µM	> 100 µM	> 100 µM	> 100 µM	> 100 µM	> 100 µM	> 100 µM	> 100 µM	> 100 µM	> 100 µM			
O=C1c2c(ccc3c2CCC3)CC12Cc1ccccc1C2	34.9 µM	> 100 µM	79.3 µM	44.3 µM	47.1 µM	82.2 µM		> 100 µM	30.1 µM	43.6 µM	> 100 µM	74.8 µM	> 100 µM	80.4 µM	93.7 µM	> 100 µM	> 100 µM	71.3 µM		
c1ccc(C(=NCCC2CNc3ccccc32)c2ccccc2)cc1 (stereo not drawn)		> 100 µM	> 100 µM	> 100 µM	> 100 µM	> 100 µM	> 100 µM	> 100 µM	> 100 µM	> 100 µM	> 100 µM			> 100 µM	> 100 µM	> 100 µM	> 100 µM	> 100 µM		
CCNC12CCC(C1)C(C)(C)C2=O (stereo not drawn)	> 100 µM	> 100 µM	> 100 µM	> 100 µM		> 100 µM	> 100 µM	> 100 µM	> 100 µM	> 100 µM	> 100 µM			> 100 µM	> 100 µM	> 100 µM	> 100 µM			
CC1(c2ccc(Cl)s2)CC(c2ccc(Cl)s2)=C(C#N)C(=C(C#N)C#N)N1 (stereo not drawn)	40.1 µM	36 µM	> 100 µM	> 100 µM	36.8 µM	28.4 µM		35.4 µM	> 100 µM	34.8 µM	32.6 µM	68.7 µM	48.9 µM	50.5 µM	52.4 µM	33.2 µM	33.2 µM	47.1 µM		
C/C=C1\CN2CCc3c([nH]c4ccccc34)C2C=C1CCO (stereo not drawn)	> 340 µM	> 340 µM	> 340 µM	> 340 µM	> 340 µM	> 340 µM	> 340 µM	> 340 µM	> 340 µM	> 340 µM	> 340 µM	> 340 µM	> 340 µM	> 340 µM	> 340 µM		> 340 µM			
O=c1cc(-c2ccco2)[nH]c2cc3c(cc12)OCO3	> 100 µM	43.8 µM	> 100 µM	> 100 µM	> 100 µM	> 100 µM	> 100 µM	> 100 µM	> 100 µM		> 100 µM	75.5 µM	> 100 µM	> 100 µM	> 100 µM	> 100 µM	> 100 µM		42.9 µM	42.1 µM
O=c1c(-c2ccccc2F)coc2cc(F)ccc12	> 100 µM	> 100 µM			> 100 µM	> 100 µM		> 100 µM	> 100 µM	> 100 µM	> 100 µM	> 100 µM	> 100 µM	> 100 µM	> 100 µM	> 100 µM	> 100 µM	> 100 µM		
C#Cc1cc(Br)c(OC(=O)C(C)(C)C)c(-c2cc(C#C)cc(Br)c2OC(=O)C(C)(C)C)c1	30.3 µM	> 100 µM	> 100 µM	46.4 µM	> 100 µM	> 100 µM		> 100 µM	> 100 µM	> 100 µM	> 100 µM	> 100 µM	> 100 µM	> 100 µM	> 100 µM	> 100 µM	> 100 µM	> 100 µM		
Cc1[nH]c(=O)[nH]c1C(=O)c1ccc(-n2ccnc2)cc1	> 100 µM	> 100 µM	> 100 µM	> 100 µM	> 100 µM	> 100 µM	> 100 µM	> 100 µM	> 100 µM	> 100 µM		> 100 µM	> 100 µM	> 100 µM	> 100 µM	> 100 µM	> 100 µM			
CCCCNC(=O)C1C2CCC(O2)C1C(=O)O (stereo not drawn)		> 100 µM		42 µM	55.4 µM	31.5 µM	95.4 µM	70.3 µM	40.4 µM		65.6 µM	39.6 µM	45.1 µM	76.1 µM	10.6 µM	> 100 µM	29 µM			
COc1ccc(NC(=O)C(C)Oc2ccc(OCC3CCCCC3)cc2)cc1 (stereo not drawn)	> 100 µM		> 100 µM		> 100 µM	> 100 µM		> 100 µM	> 100 µM			> 100 µM	> 100 µM	> 100 µM		> 100 µM	> 100 µM			
Nc1ccc(C23CC4CC(C2)CC(c2ccc(N)cc2)(C4)C3)cc1	51 µM	> 100 µM	36.8 µM	27.4 µM		> 100 µM	38.5 µM	> 100 µM	28.4 µM	> 100 µM	81.6 µM	31.1 µM	> 100 µM	> 100 µM	28 µM	> 100 µM	35.6 µM			
C#CCN(N=O)C(=O)NCCCCC(NC(C)=O)C(=O)NCc1ccccc1 (stereo not drawn)		> 100 µM	> 100 µM	> 100 µM	> 100 µM	> 100 µM	> 100 µM	> 100 µM	> 100 µM	> 100 µM	> 100 µM	> 100 µM	> 100 µM	> 100 µM	> 100 µM	> 100 µM	> 100 µM			
COC(=O)C(C(=O)C(=O)Nc1cccc([N+](=O)[O-])c1)c1nc2ccc([N+](=O)[O-])cc2[nH]c1=O (stereo not drawn)	> 100 µM	> 100 µM	> 100 µM		> 100 µM	> 100 µM	> 100 µM	> 100 µM	> 100 µM	> 100 µM	> 100 µM	> 100 µM	> 100 µM	> 100 µM	> 100 µM	> 100 µM	> 100 µM			
CC1=NN(c2nc(N)nc(C/C(N)=N/O)n2)C(C)(C)C1	> 100 µM	> 100 µM	> 100 µM	> 100 µM	> 100 µM	> 100 µM		> 100 µM	> 100 µM	> 100 µM	> 100 µM	> 100 µM	> 100 µM	> 100 µM	> 100 µM	> 100 µM	> 100 µM	> 100 µM		
C=C(C(=C)N1N=NC2C3CCC(C3)C21)N1N=NC2C3CCC(C3)C21 (stereo not drawn)	54.6 µM	> 100 µM	> 100 µM		> 100 µM	> 100 µM	> 100 µM		> 100 µM	> 100 µM		> 100 µM	> 100 µM	> 100 µM	> 100 µM	> 100 µM	> 100 µM			
CCOC(=O)c1c(C)n(C)c2c1cc(O)c1[nH]c3c(c12)CCCC3	46.7 µM	> 100 µM	40.3 µM	18.7 µM	49.4 µM	25.1 µM		> 100 µM	45.6 µM	> 100 µM	45.1 µM	37.9 µM	21.8 µM	32.8 µM	44.1 µM	23.5 µM	36.8 µM	43.9 µM		
CC(C)Oc1cccc(N2C(=NCCc3c[nH]c4ccccc34)Nc3ccncc3S2(=O)=O)c1	65.4 µM	> 100 µM	> 100 µM	> 100 µM	20.3 µM	> 100 µM	> 100 µM	> 100 µM	> 100 µM	> 100 µM	> 100 µM	> 100 µM	> 100 µM	> 100 µM	> 100 µM	> 100 µM	> 100 µM			
CN(C)c1ccc(C2CC(c3ccc4ccccc4c3O)=NN2c2ccc([N+](=O)[O-])cc2[N+](=O)[O-])cc1 (stereo not drawn)		> 100 µM			> 100 µM	> 100 µM	51.3 µM	> 100 µM	94.5 µM	> 100 µM		> 100 µM	> 100 µM	> 100 µM	> 100 µM	> 100 µM	> 100 µM	> 100 µM		
CCOC(=O)c1cc(Br)c(-c2cc(C)no2)[nH]1	83.6 µM			> 100 µM	> 100 µM	95.1 µM		> 100 µM	> 100 µM		> 100 µM	> 100 µM	> 100 µM	> 100 µM	> 100 µM	63 µM	> 100 µM	> 100 µM		
C=C1C(OC(=O)/C=C/c2ccccc2)CC(OC(C)=O)C2(C)C1CC1CC(OC(C)=O)C(C)=C(C(OC(C)=O)C2OC(C)=O)C1(C)C (stereo not drawn)		> 100 µM	> 100 µM	> 100 µM	> 100 µM		> 100 µM	> 100 µM	> 100 µM	> 100 µM		> 100 µM	> 100 µM		> 100 µM		> 100 µM			
CN(C)c1snc2c1c(=O)n(C)c(=O)n2C	> 100 µM	> 100 µM	> 100 µM	> 100 µM	> 100 µM	> 100 µM		> 100 µM	> 100 µM	> 100 µM	> 100 µM	> 100 µM	> 100 µM	> 100 µM	> 100 µM	> 100 µM	> 100 µM			
